Experimental data taken from ChEMBL document CHEMBL2040766, “Hemisynthesis and antiproliferative properties of mono-[O-(14-benzoylaconine-8-yl)]esters and bis-[O-(14-benzoylaconine-8-yl)]esters” (Eur J Med Chem, 2012).
pIC50: −log10 of the molar value.

Assays:
A549 = test: Cytotoxicity against human A549 cells incubated for 24 hrs measured 48 hrs post cell re-growth post compound dose by MTT assay; type: functional, cell-based
MCF7 [1] = test: Cytotoxicity against human MCF7 cells incubated for 24 hrs measured 48 hrs post cell re-growth post compound dose by MTT assay; type: functional, cell-based
HCT-15 [2] = test: Cytotoxicity against human HCT15 cells incubated for 24 hrs measured 48 hrs post cell re-growth post compound dose by MTT assay; type: functional, cell-based
Mus musculus [3] = test: Toxicity in NOD.Cg-Prkdcscid Il2rgtmw/SzJ jax 005557 mouse xenografted with human HCT15 cells assessed as weight loss at 10 mg/kg, iv administered as 5 doses every 3 days starting at day 7 post-tumor grafting relative to vehicle treated control; type: organism-based, HCT-15; parameters: dose 10 mg/kg, route intravenous; conditions: in vivo, 72 h
HCT-15 [4] = test: Antitumor activity against human HCT15 cells xenografted in NOD.Cg-Prkdcscid Il2rgtmw/SzJ jax 005557 mouse assessed as tumor weight at 10 mg/kg, iv administered as 5 doses every 3 days starting at day 7 post-tumor grafting measured on day 25 relative to vehicle treated control; type: functional
MCF7 [5] = test: Antitumor activity against human MCF7 cells xenografted in NOD.Cg-Prkdcscid Il2rgtmw/SzJ jax 005557 mouse assessed as tumor weight at 10 mg/kg, iv administered as weekly four doses starting at day 13 post-tumor grafting measured on day 45 relative to vehicle treated control; type: functional
MCF7 [6] = test: Antitumor activity against human MCF7 cells xenografted in NOD.Cg-Prkdcscid Il2rgtmw/SzJ jax 005557 mouse assessed as tumor weight at 10 mg/kg, iv administered as 5 doses every 4 days starting at day 9 post-tumor grafting measured on day 45 relative to vehicle treated control; type: functional
Mus musculus [7] = test: Toxicity in NOD.Cg-Prkdcscid Il2rgtmw/SzJ jax 005557 mouse xenografted with human MCF7 cells assessed as weight loss at 10 mg/kg, iv administered as weekly four doses starting at day 13 post-tumor grafting relative to vehicle treated control; type: organism-based; parameters: dose 10 mg/kg, route intravenous; conditions: in vivo
Mus musculus [8] = test: Toxicity in NOD.Cg-Prkdcscid Il2rgtmw/SzJ jax 005557 mouse xenografted with human MCF7 cells assessed as weight loss at 10 mg/kg, iv administered as 5 doses every 4 days starting at day 9 post-tumor grafting relative to vehicle treated control; type: organism-based; parameters: dose 10 mg/kg, route intravenous; conditions: in vivo, 96 h
[9] = Toxicity in iv dosed NOD.Cg-Prkdcscid Il2rgtmw/SzJ jax 005557 mouse assessed as maximum tolerated dose at 10 mg/kg, iv administered as 5 doses every 3 days starting at day 7 post-tumor grafting; type: organism-based; parameters: dose 10 mg/kg, route intravenous; conditions: in vivo
[10] = Toxicity in iv dosed NOD.Cg-Prkdcscid Il2rgtmw/SzJ jax 005557 mouse assessed as maximum tolerated dose at 10 mg/kg, iv administered as weekly four doses starting at day 13 post-tumor grafting; type: organism-based; parameters: dose 10 mg/kg, route intravenous; conditions: in vivo
[11] = Toxicity in iv dosed NOD.Cg-Prkdcscid Il2rgtmw/SzJ jax 005557 mouse assessed as maximum tolerated dose at 10 mg/kg, iv administered as 5 doses every 4 days starting at day 9 post-tumor grafting; type: organism-based; parameters: dose 10 mg/kg, route intravenous; conditions: in vivo
Mus musculus [12] = test: Toxicity in NOD.Cg-Prkdcscid Il2rgtmw/SzJ jax 005557 mouse xenografted with human HCT15 cells assessed as mortality incidence at 10 mg/kg, iv administered as 5 doses every 3 days starting at day 7 post-tumor grafting relative to vehicle treated control; type: organism-based, HCT-15; parameters: dose 10 mg/kg, route intravenous; conditions: in vivo, 72 h
Mus musculus [13] = test: Toxicity in NOD.Cg-Prkdcscid Il2rgtmw/SzJ jax 005557 mouse xenografted with human MCF7 cells assessed as mortality incidence at 10 mg/kg, iv administered as weekly four doses starting at day 13 post-tumor grafting relative to vehicle treated control; type: organism-based; parameters: dose 10 mg/kg, route intravenous; conditions: in vivo
Mus musculus [14] = test: Toxicity in NOD.Cg-Prkdcscid Il2rgtmw/SzJ jax 005557 mouse xenografted with human MCF7 cells assessed as mortality incidence at 10 mg/kg, iv administered as 5 doses every 4 days starting at day 9 post-tumor grafting relative to vehicle treated control; type: organism-based; parameters: dose 10 mg/kg, route intravenous; conditions: in vivo, 96 h
Mus musculus [15] = test: Toxicity in NOD.Cg-Prkdcscid Il2rgtmw/SzJ jax 005557 mouse xenografted with human HCT15 cells assessed as induction of toxic effect at 10 mg/kg, iv administered as 5 doses every 3 days starting at day 7 post-tumor grafting relative to vehicle treated control; type: organism-based, HCT-15; parameters: dose 10 mg/kg, route intravenous; conditions: in vivo, 72 h
Mus musculus [16] = test: Toxicity in NOD.Cg-Prkdcscid Il2rgtmw/SzJ jax 005557 mouse xenografted with human MCF7 cells assessed as induction of toxic effect at 10 mg/kg, iv administered as weekly four doses starting at day 13 post-tumor grafting relative to vehicle treated control; type: organism-based; parameters: dose 10 mg/kg, route intravenous; conditions: in vivo
Mus musculus [17] = test: Toxicity in NOD.Cg-Prkdcscid Il2rgtmw/SzJ jax 005557 mouse xenografted with human MCF7 cells assessed as induction of toxic effect at 10 mg/kg, iv administered as 5 doses every 4 days starting at day 9 post-tumor grafting relative to vehicle treated control; type: organism-based; parameters: dose 10 mg/kg, route intravenous; conditions: in vivo, 96 h

SMILES | pIC50 (A549) | pIC50 (MCF7 [1]) | pIC50 (HCT-15 [2]) | further results
CCN1C[C@]2(COC)[C@H](O)C[C@H](OC)[C@]34C1[C@H]([C@H](OC)[C@H]23)[C@]1(OC(=O)CCCCC(=O)O)[C@H]2[C@@H](OC(=O)c3ccccc3)[C@](O)(C[C@H]24)[C@@H](OC)[C@@H]1O | < 4.22 | < 4.22 | < 4.22 | 
CCN1C[C@]2(COC)[C@H](O)C[C@H](OC)[C@]34C1[C@H]([C@H](OC)[C@H]23)[C@]1(OC(=O)CCC(=O)O)[C@H]2[C@@H](OC(=O)c3ccccc3)[C@](O)(C[C@H]24)[C@@H](OC)[C@@H]1O | < 4.22 | < 4.22 | < 4.22 | 
CCN1C[C@]2(COC)[C@H](O)C[C@H](OC)[C@]34C1[C@H]([C@H](OC)[C@H]23)[C@]1(OC(=O)CCCC(=O)O)[C@H]2[C@@H](OC(=O)c3ccccc3)[C@](O)(C[C@H]24)[C@@H](OC)[C@@H]1O | < 4.22 | < 4.22 | < 4.22 | 
CCN1C[C@]2(COC)[C@H](O)C[C@H](OC)[C@]34C1[C@H]([C@H](OC)[C@H]23)[C@]1(OC(=O)CCCCCC(=O)O)[C@H]2[C@@H](OC(=O)c3ccccc3)[C@](O)(C[C@H]24)[C@@H](OC)[C@@H]1O | < 4.22 | < 4.22 | < 4.22 | 
CCN1C[C@]2(COC)[C@H](O)C[C@H](OC)[C@]34C1[C@H]([C@H](OC)[C@H]23)[C@]1(OC(=O)CCCCCCC(=O)O)[C@H]2[C@@H](OC(=O)c3ccccc3)[C@](O)(C[C@H]24)[C@@H](OC)[C@@H]1O | < 4.22 | < 4.22 | < 4.22 | 
CCN1C[C@]2(COC)[C@H](O)C[C@H](OC)[C@]34C1[C@H]([C@H](OC)[C@H]23)[C@]1(OC(=O)CCCCCCCC(=O)O)[C@H]2[C@@H](OC(=O)c3ccccc3)[C@](O)(C[C@H]24)[C@@H](OC)[C@@H]1O | < 4.22 | < 4.22 | < 4.22 | 
CCN1C[C@]2(COC)[C@H](O)C[C@H](OC)[C@]34C1[C@H]([C@H](OC)[C@H]23)[C@]1(OC(=O)CCCCCCCCC(=O)O)[C@H]2[C@@H](OC(=O)c3ccccc3)[C@](O)(C[C@H]24)[C@@H](OC)[C@@H]1O | < 4.22 | < 4.22 | < 4.22 | 
CCN1C[C@]2(COC)[C@H](O)C[C@H](OC)[C@]34C1[C@H]([C@H](OC)[C@H]23)[C@]1(OC(=O)CCCCCCCCCC(=O)O)[C@H]2[C@@H](OC(=O)c3ccccc3)[C@](O)(C[C@H]24)[C@@H](OC)[C@@H]1O | < 4.22 | < 4.22 | < 4.22 | 
CCN1C[C@]2(COC)[C@H](O)C[C@H](OC)[C@]34C1[C@H]([C@H](OC)[C@H]23)[C@]1(OC(=O)CCC(=O)O[C@]23[C@H]5[C@@H](OC(=O)c6ccccc6)[C@](O)(C[C@H]5[C@@]56C7[C@@H]2[C@H](OC)[C@@H]5[C@](COC)(CN7CC)[C@H](O)C[C@@H]6OC)[C@@H](OC)[C@@H]3O)[C@H]2[C@@H](OC(=O)c3ccccc3)[C@](O)(C[C@H]24)[C@@H](OC)[C@@H]1O | < 4.22 | < 4.22 | < 4.22 | 
CCN1C[C@]2(COC)[C@H](O)C[C@H](OC)[C@]34C1[C@H]([C@H](OC)[C@H]23)[C@]1(OC(=O)CCCC(=O)O[C@]23[C@H]5[C@@H](OC(=O)c6ccccc6)[C@](O)(C[C@H]5[C@@]56C7[C@@H]2[C@H](OC)[C@@H]5[C@](COC)(CN7CC)[C@H](O)C[C@@H]6OC)[C@@H](OC)[C@@H]3O)[C@H]2[C@@H](OC(=O)c3ccccc3)[C@](O)(C[C@H]24)[C@@H](OC)[C@@H]1O | < 4.22 | < 4.22 | < 4.22 | 
CCN1C[C@]2(COC)[C@H](O)C[C@H](OC)[C@]34C1[C@H]([C@H](OC)[C@H]23)[C@]1(OC(=O)CCCCC(=O)O[C@]23[C@H]5[C@@H](OC(=O)c6ccccc6)[C@](O)(C[C@H]5[C@@]56C7[C@@H]2[C@H](OC)[C@@H]5[C@](COC)(CN7CC)[C@H](O)C[C@@H]6OC)[C@@H](OC)[C@@H]3O)[C@H]2[C@@H](OC(=O)c3ccccc3)[C@](O)(C[C@H]24)[C@@H](OC)[C@@H]1O | < 4.22 | < 4.22 | < 4.22 | 
CCN1C[C@]2(COC)[C@H](O)C[C@H](OC)[C@]34C1[C@H]([C@H](OC)[C@H]23)[C@]1(OC(=O)CCCCCC(=O)O[C@]23[C@H]5[C@@H](OC(=O)c6ccccc6)[C@](O)(C[C@H]5[C@@]56C7[C@@H]2[C@H](OC)[C@@H]5[C@](COC)(CN7CC)[C@H](O)C[C@@H]6OC)[C@@H](OC)[C@@H]3O)[C@H]2[C@@H](OC(=O)c3ccccc3)[C@](O)(C[C@H]24)[C@@H](OC)[C@@H]1O | 5.02 | 5.12 | 5.33 | 
CCN1C[C@]2(COC)[C@H](O)C[C@H](OC)[C@]34C1[C@H]([C@H](OC)[C@H]23)[C@]1(OC(=O)CCCCCCC(=O)O[C@]23[C@H]5[C@@H](OC(=O)c6ccccc6)[C@](O)(C[C@H]5[C@@]56C7[C@@H]2[C@H](OC)[C@@H]5[C@](COC)(CN7CC)[C@H](O)C[C@@H]6OC)[C@@H](OC)[C@@H]3O)[C@H]2[C@@H](OC(=O)c3ccccc3)[C@](O)(C[C@H]24)[C@@H](OC)[C@@H]1O | 5.12 | 5.16 | 5.40 | T/C (Mus musculus [3]): 9.34%; T/C (HCT-15 [4]): 49%; T/C (MCF7 [5]): 56%; T/C (MCF7 [6]): 36%; T/C (Mus musculus [7]): 0%; T/C (Mus musculus [8]): 0%; MTD at 72 h [9]: 15 mg/kg; MTD [10]: 15 mg/kg; MTD at 96 h [11]: 15 mg/kg; Activity (Mus musculus [12]): Non-toxic; Activity (Mus musculus [13]): Non-toxic; Activity (Mus musculus [14]): Non-toxic; Activity (Mus musculus [15]): Non-toxic; Activity (Mus musculus [16]): Non-toxic; Activity (Mus musculus [17]): Non-toxic
CCN1C[C@]2(COC)[C@H](O)C[C@H](OC)[C@]34C1[C@H]([C@H](OC)[C@H]23)[C@]1(OC(=O)CCCCCCCC(=O)O[C@]23[C@H]5[C@@H](OC(=O)c6ccccc6)[C@](O)(C[C@H]5[C@@]56C7[C@@H]2[C@H](OC)[C@@H]5[C@](COC)(CN7CC)[C@H](O)C[C@@H]6OC)[C@@H](OC)[C@@H]3O)[C@H]2[C@@H](OC(=O)c3ccccc3)[C@](O)(C[C@H]24)[C@@H](OC)[C@@H]1O | 4.71 | 4.77 | 4.55 | 
